The target in the test is T1, human RIP1 kinase domain (2-375) (Homo sapiens, UniProt Q13546).
T1 construct: Purified human RIP1 kinase domain (2-375) (50 nM); made in house; host or cells: baculovirus-infected insect cells
T1 sequence (Q13546 2-375): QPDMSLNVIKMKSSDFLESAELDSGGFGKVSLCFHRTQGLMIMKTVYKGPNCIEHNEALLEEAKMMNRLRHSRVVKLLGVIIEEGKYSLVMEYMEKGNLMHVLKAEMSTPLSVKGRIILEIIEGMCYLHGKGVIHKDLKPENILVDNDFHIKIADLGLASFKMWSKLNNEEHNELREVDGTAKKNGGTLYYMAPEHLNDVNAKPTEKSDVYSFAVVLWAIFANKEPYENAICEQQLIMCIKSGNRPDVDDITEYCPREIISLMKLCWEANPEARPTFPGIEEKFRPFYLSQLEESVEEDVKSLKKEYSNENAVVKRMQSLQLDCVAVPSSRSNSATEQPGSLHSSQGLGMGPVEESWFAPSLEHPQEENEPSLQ
Description: RIP1 kinase inhibition biochemical assay (Transcreener ADP, fluorescence polarization). The conditions noted are these: Ki app (Morrison tight-binding fit); 50 nM enzyme, 50 uM ATP, 2 hours incubation. The protocol: RIP1 Kinase Inhibition Assays (Biochemical Assay)
The compounds of the present invention were tested for their capacity to inhibit RIP1K activity as described below.
The ability of the receptor interacting protein kinase (RIPK1) to catalyze the hydrolysis of adenosine-5′-triphosphate (ATP) is monitored using the Transcreener ADP (adenosine-5′-diphosphate) assay (BellBrook Labs). Purified human RIP1 kinase domain (2-375) (50 nM) derived from a baculovirus-infected insect cell expression system is incubated with test compounds for 2 hours in 50 mM Hepes buffer (pH 7.5) containing 30 mM MgCl2, 1 mM dithiothreitol, 50 uM ATP, 0.002% Brij-35, and 0.5% dimethyl sulfoxide (DMSO). Reactions are quenched by the addition of 1× Bell Brooks Stop buffer B (20 mM Hepes (ph7.5), 40 mM ethylenediaminetetraacetic acid and 0.02% Brij-35) containing an additional 12 mM EDTA and 55 ug/mL ADP2 antibody and 4 nM ADP-AlexaFluor® 633 tracer. The tracer bound to the antibody is displaced by the ADP generated during the RIP1K reaction, which causes a decrease in fluorescence polarization that is measured by laser excitation at 633 nm with a FP microplate reader M1000. Fractional activity was plotted against test article concentration. Using Genedata Screener software (Genedata; Basel, Switzerland), the data were fit to the tight-binding apparent inhibition constant (Ki^app) Morrison equation [Williams, J. W. and Morrison, J. F. (1979) The kinetics of reversible tight-binding inhibition. Methods Enzymol 63: 437-67]. The following equation was used to calculate fractional activity and Ki^app:
[formula] where [E]T and [I]T are the total concentrations of active enzyme and test article, respectively.
Exemplary compounds of the present invention are provided in Table 1 along with their physiochemical characterization and in vitro RIP1 kinase inhibitory activity data. “Method” in the first column of each table refers to the synthetic method(s) used to prepare each compound as shown in the Examples above. In certain examples, chiral column retention times (min) are provided for certain stereoisomers. Unless otherwise specified, the stereochemistry shown in each structure represents relative configuration of a single stereoisomer, and absolute configuration (i.e., “R” and/or “S”) is arbitrarily assigned. In some embodiments, where the Method is described to include the separation of stereoisomers, a single stereoisomer of a compound of Table 1 is provided.
Background: Fluorescence polarisation rises when a labelled molecule tumbles more slowly, as on binding a larger partner.

Turning to `F[C@@H]1C[C@H](c2ccccc2)n2nc(CCC(F)(F)F)nc21` (single isomer, unassigned) [Example 15], the Ki worked out at 1100 nM. Next, `CC1(C(F)(F)c2nc3n(n2)[C@H](c2ccccc2)C[C@@H]3F)COC1` (single isomer, unassigned) [Example 17]: 34 nM; `F[C@H]1C[C@@H](c2ccccc2)n2nc(CCC(F)(F)F)nc21` (single isomer, unassigned) [Example 18]: 12 nM; `Cn1ccc(-c2nc3n(n2)[C@H](c2ccccc2)C[C@@H]3F)n1` (single isomer, unassigned) [Example 19]: 1100 nM. The value for `N#CCCc1nc2n(n1)[C@H](c1ccccc1)C[C@@H]2F` (single isomer, unassigned) [Example 22] was 11 nM; that for `Cc1cnn(-c2nc3n(n2)[C@H](c2ccccc2)C[C@@H]3F)c1` (single isomer, unassigned) [Example 25] was 17 nM. In turn, `CCCc1nc2n(n1)[C@H](c1ccccc1F)CC2` (single isomer, unassigned) [Example 26] registered a Ki of 114 nM. For `CC[C@](C)(F)c1nc2n(n1)[C@H](c1ccccc1)C[C@@H]2F` (single isomer, unassigned) [Example 27], the Ki amounted to 33 nM.

In turn, `FC(F)CCc1nc2n(n1)[C@H](c1ccccc1)C[C@@H]2F` (single isomer, unassigned) [Example 29] returned a Ki of 22 nM. Turning to `F[C@H]1C[C@@H](c2ccccc2)n2nc(-n3cccn3)nc21` (single isomer, unassigned) [Example 31], the Ki was 160 nM. `CC[C@@](C)(F)c1nc2n(n1)[C@H](c1ccccc1)C[C@@H]2F` (single isomer, unassigned) [Example 32]: the Ki was determined as 18 nM. Take `O[C@H](c1nc2n(n1)[C@H](c1ccccc1)C[C@@H]2F)C1CC1` (single isomer, unassigned) [Example 34]: the Ki was found to be 904 nM. In turn, `O[C@@H](c1nc2n(n1)[C@H](c1ccccc1)C[C@@H]2F)C1CC1` (single isomer, unassigned) [Example 35] registered a Ki of 83 nM. The value for `CC(C)c1cnn(-c2nc3n(n2)[C@H](c2ccccc2)C[C@@H]3F)c1` (single isomer, unassigned) [Example 39] was 30 nM; that for `F[C@H]1C[C@@H](c2ccccc2)n2nc(-n3cc(-c4ccncn4)cn3)nc21` (single isomer, unassigned) [Example 41] was 260 nM; that for `F[C@H]1C[C@@H](c2ccccc2)n2nc([C@H](F)C34CC(C3)C4)nc21` (single isomer, unassigned) [Example 45] was 230 nM. Molecule `F[C@H](c1nc2n(n1)[C@H](c1ccccc1)C[C@@H]2F)C12CC(C1)C2` (single isomer, unassigned) [Example 46] displayed a Ki of 840 nM.

As to `N#CC1(Cc2nc3n(n2)[C@H](c2ccccc2)C[C@@H]3F)CC1` (single isomer, unassigned) [Example 47], the Ki stood at 95 nM.

On to `Cn1cc(/C=C/c2nc3n(n2)[C@H](c2ccccc2)C[C@@H]3F)cn1` (single isomer, unassigned) [Example 49], for which the Ki worked out at 1200 nM. `C=Cc1nc2n(n1)[C@H](c1ccccc1)C[C@@H]2F` (single isomer, unassigned) [Example 50]: the Ki was 220 nM.

In the case of `C=CCc1nc2n(n1)[C@H](c1ccccc1)C[C@@H]2F` (single isomer, unassigned) [Example 52], the Ki worked out at 100 nM. `N#Cc1ccn(-c2nc3n(n2)[C@H](c2ccccc2)C[C@@H]3F)n1` (single isomer, unassigned) [Example 53] yielded a Ki of 280 nM. `N#Cc1cnn(-c2nc3n(n2)[C@H](c2ccccc2)C[C@@H]3F)c1` (single isomer, unassigned) [Example 54] showed a Ki of 41 nM. The value for `F[C@H]1C[C@@H](c2ccccc2)n2nc(-n3cc(C(F)(F)F)cn3)nc21` (single isomer, unassigned) [Example 56] was below 5 nM.

`COc1cnn(-c2nc3n(n2)[C@H](c2ccccc2)C[C@@H]3F)c1` (single isomer, unassigned) [Example 57] registered a Ki of 130 nM. `Fc1cnn(-c2nc3n(n2)[C@H](c2ccccc2)C[C@@H]3F)c1` (single isomer, unassigned) [Example 58] showed a Ki of 9 nM. Next, `CCc1cnn(-c2nc3n(n2)[C@H](c2ccccc2)C[C@@H]3F)c1` (single isomer, unassigned) [Example 59]: 11 nM.

`Cn1ccnc1-c1nc2n(n1)[C@H](c1ccccc1)C[C@@H]2F` (single isomer, unassigned) [Example 61] displayed a Ki of 820 nM.

As for `F[C@H]1C[C@@H](c2ccccc2)n2nc(-n3cnc(C(F)(F)F)c3)nc21` (single isomer, unassigned) [Example 62], the Ki was 160 nM.

Turning to `Cc1ccnn1-c1nc2n(n1)[C@H](c1ccccc1)C[C@@H]2F` (single isomer, unassigned) [Example 63], the Ki stood at 92 nM. Molecule `F[C@H]1C[C@@H](c2ccccc2)n2nc(-n3ccc(C(F)(F)F)n3)nc21` (single isomer, unassigned) [Example 64] displayed a Ki of 610 nM. Regarding `Cc1nn(-c2nc3n(n2)[C@H](c2ccccc2)C[C@@H]3F)c(N)c1C#N` (single isomer, unassigned) [Example 65], the Ki was 720 nM. As to `F[C@H]1C[C@@H](c2ccccc2)n2nc(-n3ccnc3)nc21` (single isomer, unassigned) [Example 66], the Ki stood at 890 nM.

As for `Cc1nccn1-c1nc2n(n1)[C@H](c1ccccc1)C[C@@H]2F` (single isomer, unassigned) [Example 67], the Ki was found to be 890 nM. As for `F[C@H]1C[C@@H](c2ccccc2)n2nc(-n3cncn3)nc21` (single isomer, unassigned) [Example 68], the Ki worked out at 190 nM. Consider `F[C@H]1C[C@@H](c2ccccc2)n2nc(-n3ccnc3Cl)nc21` (single isomer, unassigned) [Example 69], for which the Ki stood at 86 nM.

Regarding `Cc1ncn(-c2nc3n(n2)[C@H](c2ccccc2)C[C@@H]3F)c1C` (single isomer, unassigned) [Example 70], the Ki worked out at 180 nM. The value for `Cn1ccn(-c2nc3n(n2)[C@H](c2ccccc2)C[C@@H]3F)c1=O` (single isomer, unassigned) [Example 71] was 820 nM; that for `N#Cc1cccc2c1cnn2-c1nc2n(n1)[C@H](c1ccccc1)C[C@@H]2F` (single isomer, unassigned) [Example 72] was below 5 nM. Regarding `Cc1ncnn1-c1nc2n(n1)[C@H](c1ccccc1)C[C@@H]2F` (single isomer, unassigned) [Example 74], the Ki was 70 nM.

Molecule `F[C@H]1C[C@@H](c2ccccc2)n2nc(-n3cnc(Cl)c3)nc21` (single isomer, unassigned) [Example 75] showed a Ki of 100 nM. For the molecule `Fc1cn(-c2nc3n(n2)[C@H](c2ccccc2)C[C@@H]3F)cn1` (single isomer, unassigned) [Example 76], the Ki was 64 nM.

The molecule `N#CCc1cnn(-c2nc3n(n2)[C@H](c2ccccc2)C[C@@H]3F)c1` (single isomer, unassigned) [Example 77] came in with a Ki of 260 nM. Consider `F[C@H]1C[C@@H](c2ccccc2)n2nc(-n3cc(C4CC4)cn3)nc21` (single isomer, unassigned) [Example 79], for which the Ki was 13 nM. The value for `CS(=O)(=O)c1cnn(-c2nc3n(n2)[C@H](c2ccccc2)C[C@@H]3F)c1` (single isomer, unassigned) [Example 80] was 190 nM; that for `F[C@H]1C[C@@H](c2ccccc2)n2nc(-n3nnc4ccccc43)nc21` (single isomer, unassigned) [Example 81] was 5 nM; that for `F[C@H]1C[C@@H](c2ccccc2)n2nc(-n3nnc4ccncc43)nc21` (single isomer, unassigned) [Example 83] was 36 nM.

(Values after patent US11673892B2, “Bicyclic compounds for use as RIP1 kinase inhibitors” (Genentech, Inc., priority 2017, dated 2023).)
